Molecules are shown by their SMILES. Some results are limits rather than exact numbers.

One data set in a line: in vivo. The conditions noted are these: horse, concentration of C21-C21-desisobutyrylciclesonide in plasma.
For data set [1], the system named is RAO horses. The data set is described as follows: Budesonide study: moldy hay challenge, lung function variables and clinical score. In kind it is in vivo. The text has this:
Nozzle A and a […]® inhaler device not available commercially is used in the study.

The subject of data set [2] is RAO horses. The data set is described as follows: 2nd ciclesonide study: moldy hay challenge, serum cortisol. The data set is classed as in vivo. The conditions noted are these: dexamethasone 0.066 mg/kg per os once daily; days 3, 5, 7, 10, 14 and 17; p<0.0001. From the text:
(§1) The commercially available […]® is used in the study.

For data set [3], the system named is RAO horses. The data set is described as follows: 1st ciclesonide study: moldy hay challenge, serum cortisol. The data set is classed as in vivo. The settings on record: dexamethasone 0.066 mg/kg per os once daily; days 3, 5, 7, 10, 14 and 17; p<0.0001.
The conditions of data set [4]: taken orally; cited from earlier work.
Data set [5] deals with RAO horses. The data set is described as follows: 2nd ciclesonide study: moldy hay challenge, lung function variables and weighted clinical score. The data set is classed as in vivo. The settings on record: dexamethasone 0.066 mg/kg per os once daily; after 14 days.
Text: as §1

For data set [6], the system named is RAO horses. The data set is described as follows: Segmented neutrophil and lymphocyte counts in the 1st and 2nd ciclesonide studies. The data set is classed as in vivo. The settings on record: for lymphocytes count / segmented neutrophil count: after administration of dexamethasone 0.066 mg/kg per os; for Lymphocytes / Segmented neutrophils: dexamethasone 0.066 mg/kg per os once daily 14 days, mean, n=8. The procedure: as §1
The segmented neutrophil counts and the lymphocyte counts are determined in the studies above: ciclesonide treatment versus dexamethasone treatment.
Concentration of segmented neutrophils and lymphocytes on day (D): D0, D14 and D21 in the treatment groups of dexamethasone and different doses of ciclesonide (n=8) (mean (SEM)

Data set [7] relates to RAO horses. The data set is described as follows: 1st ciclesonide study: moldy hay challenge, lung function variables and breathing effort score. In kind it is in vivo. The settings on record: dexamethasone 0.066 mg/kg per os once daily; after 14 days; p<0.0001.

`C[C@]12C=CC(=O)C=C1CC[C@@H]1[C@@H]2[C@@H](O)C[C@@]2(C)[C@H]1C[C@H]1O[C@@H](C3CCCCC3)O[C@]12C(=O)CO` [C21-C21-desisobutyrylciclesonide] showed a concentration at 4 h in the data set “in vivo” of under 0.25 nM.

With `CCCC1O[C@@H]2C[C@H]3[C@@H]4CCC5=CC(=O)C=C[C@]5(C)[C@H]4[C@@H](O)C[C@]3(C)[C@]2(C(=O)CO)O1` (stereo partly drawn) [budesonide], the “clinical score (breathing effort score) compared to pretreatment values” in the data set with RAO horses [1] (all three budesonide doses (450/900/1800 μg/horse twice daily), after 7 and 14 days, p=0.002 to p<0.0001) is “significantly reduced”. Further, the “all lung function variables (transpulmonary pressure, lung resistance, lung elastance) compared to pretreatment values” in the data set with RAO horses [1] (budesonide 1800 μg/horse ex RESPIMAT twice daily per inhalation, after 14 days, p≤0.0001) is “significantly reduced”. The “lung function variables, difference to dexamethasone group” value in the data set on RAO horses [1] (budesonide 1800 μg/horse ex RESPIMAT twice daily, after 7 or 14 days) is “no significant difference”. In addition, in the data set with RAO horses [1] (budesonide 900 and 1800 μg/horse ex RESPIMAT twice daily, after 7 and 14 days), the “clinical score, difference to dexamethasone group” value is listed as “no significant difference”.

For the compound `C[C@@H]1C[C@H]2[C@@H]3CCC4=CC(=O)C=C[C@]4(C)[C@@]3(F)[C@@H](O)C[C@]2(C)[C@@]1(O)C(=O)CO` [dexamethasone], in the data set on RAO horses [1] (dexamethasone 0.066 mg/kg per os once daily, after 7 and 14 days), the “clinical score (breathing effort score) compared to pretreatment values” is on record as “significantly reduced”. The “all lung function variables compared to pretreatment values” with RAO horses [1] (dexamethasone 0.066 mg/kg per os once daily, after 14 days, p≤0.0001) is “significantly reduced”. Further, the serum cortisol levels entry in the data set on RAO horses [2] is “significantly reduced”. In addition, the “serum cortisol levels in comparison to any of the ciclesonide treatment groups” value in the data set on RAO horses [2] and in the data set with RAO horses [3] was “significantly reduced” in each case. In addition, the “serum cortisol levels compared to pretreatment values” with RAO horses [3] is on record as “significantly reduced”. Besides, in data set [4], the “potency relative to prednisone” value was 7 times. The “potency relative to the naturally occurring hormone cortisol” value in data set [4] is 27 times. Also, the “all lung function variables (ΔPL, RL, EL) compared to pretreatment values” with RAO horses [5] and with RAO horses [7] was “significantly reduced” throughout. In the data set with RAO horses [5], the “weighted clinical score compared to pretreatment values” was “significantly reduced”. Besides, the lymphocytes count result with RAO horses [6] (1st ciclesonide study) and in the data set with RAO horses [6] (2nd ciclesonide study) was “decreased” in each case. In addition, the segmented neutrophil count result with RAO horses [6] (1st ciclesonide study) and with RAO horses [6] (2nd ciclesonide study) was “increased” in each case. For the same compound, the neutrophilia and lymphopenia entry in the data set on RAO horses [6] (after treatment with dexamethasone (1st and 2nd ciclesonide study)) was “Neutrophilia and lymphopenia is observed”. Moreover, the Lymphocytes in the data set on RAO horses [6] (1st ciclesonide study, D 0) is 2.1e+09 L⁻¹; in the data set with RAO horses [6] (1st ciclesonide study, D 14), 1.71e+09 L⁻¹; in the data set on RAO horses [6] (1st ciclesonide study, D 21) it was 1.76e+09 L⁻¹; with RAO horses [6] (2nd ciclesonide study, D 0), 2.14e+09 L⁻¹; in the data set with RAO horses [6] (2nd ciclesonide study, D 14), 1.73e+09 L⁻¹; in the data set with RAO horses [6] (2nd ciclesonide study, D 21) it was 1.73e+09 L⁻¹. Further, the Segmented neutrophils in the data set on RAO horses [6] (1st ciclesonide study, D 0) came out at 4.77e+09 L⁻¹; in the data set with RAO horses [6] (1st ciclesonide study, D 14), 6.16e+09 L⁻¹; in the data set with RAO horses [6] (1st ciclesonide study, D 21), 4.27e+09 L⁻¹; in the data set on RAO horses [6] (2nd ciclesonide study, D 0), 4.82e+09 L⁻¹; with RAO horses [6] (2nd ciclesonide study, D 14), 6.23e+09 L⁻¹; in the data set on RAO horses [6] (2nd ciclesonide study, D 21), 4.82e+09 L⁻¹.

Values taken from US10258634B2, “Ciclesonide for the treatment of airway disease in horses” (Boehringer Ingelheim Vetmedica GmbH, priority 2012, dated 2019).
